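A five-concentration, 48-hour dose response in 96-well plates underlies each endpoint, interpolated linearly between surrounding concentrations. GI50 = concentration required for 50% inhibition of growth. TGI: concentration producing complete growth inhibition.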

This experiment concerns MDA-MB-468 breast. Description: inhibition of tumour cell growth, NCI panel, 48 h.
For `COC1=C2C[C@@H](C)C[C@@H](OC)[C@@H](O)[C@H](C)/C=C(\C)[C@@H](OC(N)=O)[C@H](OC)/C=C\C=C(/C)C(=O)NC(=CC1=O)C2=O`, the GI50 is 0.0153 µM and the TGI amounted to 0.577 µM.

Take `O=C(CN1C(=O)S/C(=C\C(Cl)=C\c2ccccc2)C1=O)NCCc1ccc(O)cc1`: the GI50 was 1.27 µM and the TGI was 3.54 µM.

As to `Cc1nn(-c2ccccc2)c2nc3c(nc12)C1=NCCN1C(c1ccc(Cl)cc1)N3` (centres undefined), the GI50 is 1.65 µM and the TGI worked out at 3.23 µM.

Consider `COc1nc(N)nc2c1ncn2[C@@H]1O[C@H](CO)[C@@H](O)[C@@H]1O`, for which the GI50 was above 100 µM and the TGI is above 100 µM.

As for `O=C1CCC(N2Cc3c(C#CCCCNC(=O)c4cc5c(o4)C(=O)c4ccccc4C5=O)cccc3C2=O)C(=O)N1` (centres undefined), the GI50 was 2.13 µM and the TGI came to 6.25 µM.

As for H-HIIKKIRTWYRKAWHVLGKV-NH2, the GI50 was 6.38 µM and the TGI came to 39 µM.

Turning to `CC1(C)N=C(N)N=C(N)N1c1cccc(CCCCOc2ccccc2)c1`, the GI50 is 0.0775 µM and the TGI turned out to be 4.08 µM.

On to `C/C(=C\CCc1ccsc1)CC/C=C(\C)CCCN1CCC(CO)CC1`, for which the GI50 was 1.48 µM and the TGI amounted to 3.29 µM.

As for `O=C(NCCNc1nccc(-c2c(-c3ccc(F)cc3)nc3sccn23)n1)c1ccccc1`, the GI50 was 4.48 µM and the TGI is 44.5 µM.

Regarding `CCn1c(-c2nonc2N)nc2cncc(C(=O)NCCNC)c21`, the GI50 is 1.9 µM and the TGI was 14.6 µM.

On to `C#C[C@]1(O)CC[C@H]2[C@@H]3CC=C4c5sc(Nc6cccc(F)c6)nc5CC[C@]4(C)[C@H]3CC[C@@]21C`, for which the GI50 is 1.24 µM and the TGI was found to be 2.91 µM.

In the case of `COc1cc(C2CC(c3ccccc3)=NN2C(C)=O)cc(OC)c1OC` (centres undefined), the GI50 was 3.34 µM and the TGI is 37.1 µM.

Turning to `N=c1n(Cc2ccccc2)c(N)cc(=O)n1Cc1ccccc1`, the GI50 was 4.82 µM and the TGI was determined as 21.2 µM.

As for `C=CC[C@@H]1/C=C(\C)C[C@H](C)C[C@H](OC)[C@H]2O[C@@](O)(C(=O)C(=O)N3CCCC[C@H]3C(=O)O[C@H](/C(C)=C/C3CC[C@@H](O)[C@H](OC)C3)[C@H](C)[C@@H](O)CC1=O)[C@H](C)C[C@@H]2OC` (some centres undefined), the GI50 is 12.2 µM and the TGI worked out at 27.3 µM.

With `CC1OC(n2c3ccccc3c3c4c(c5c6ccccc6[nH]c5c32)C(=O)N(CCN2CCOCC2)C4=O)CC(O)C1O` (centres undefined), the GI50 is 1.57 µM and the TGI came to 4.57 µM.

On to `COc1ccc(-c2nc(N3CCOCC3)c3sc(CN(C)c4ncc(C(=O)NO)cn4)cc3n2)cn1`, for which the GI50 is below 0.0104 µM and the TGI is 0.0968 µM.

`O=C1/C(=C/c2ccccc2F)CN(C(=O)C(Cl)Cl)C/C1=C\c1ccccc1F`: the GI50 is 0.277 µM and the TGI turned out to be 1.11 µM.

Turning to `O=C1CC[C@H](c2ccc(O)c3c2C(=O)[C@@H]2O[C@@H]2C3=O)c2cccc(O)c21`, the GI50 is 1.61 µM and the TGI is 4.27 µM.

Take `COc1ccc2cc(Cn3cc[n+](Cc4ccc5ccccc5c4)c3)ccc2c1`: the GI50 is 0.487 µM and the TGI is 2.57 µM.

With `CCN(CC)CCCCNc1ncc2cc(-c3cc(OC)cc(OC)c3)c(NC(=O)NC(C)(C)C)nc2n1`, the GI50 was 8.81 µM and the TGI came out at 21.7 µM.

In the case of `C=C(C)[C@@H]1CC[C@]2(C(=O)O)CC[C@]3(C)[C@H](CC[C@@H]4[C@@]5(C)C/C(=C/c6ccc(OC)cc6)C(=O)C(C)(C)[C@@H]5CC[C@]43C)[C@@H]12`, the GI50 was 1.81 µM and the TGI is 7 µM.

As for `COc1ccc(OC)c(/C=C2\COc3ccc(O)c(O)c3C2=O)c1`, the GI50 was 1.66 µM and the TGI is 5.25 µM.

Turning to `COc1cccc(Cn2c(-c3nonc3NC(C)=O)nc3ccccc32)c1`, the GI50 was 1.45 µM and the TGI is 6.36 µM.

Regarding `O=C(Nc1ccc(OCc2nnc(-c3ccccc3)o2)c(F)c1)Nc1ccc(Cl)c(C(F)(F)F)c1`, the GI50 was 1.9 µM and the TGI is 6.93 µM.

For `C/C(=C(\c1ccc(O)cc1)c1ccc(OCCN2CCCCCC2)cc1)c1ccc(Cl)cc1`, the GI50 is 1.13 µM and the TGI is 4.51 µM.

As for `S=C(c1ccc2c(c1)OCO2)N1CCN(c2cccc(Cl)c2)CC1`, the GI50 is 0.34 µM and the TGI is above 36.8 µM.

Consider `O=C(Cc1ccccc1)NC(c1ccc(Cl)cc1)c1c(O)ccc2ccccc12` (centres undefined), for which the GI50 was 1.99 µM and the TGI is 5.53 µM.

Turning to `COc1cc(NC(=O)CSc2nc3ccccc3c(=O)n2CCc2ccccc2)cc(OC)c1OC`, the GI50 was 2.2 µM and the TGI turned out to be 7.13 µM.

`CCOC(=O)c1c(Cl)c2c(n1Cc1cccc(OC)c1)-c1oncc1CC2`: the GI50 is 0.652 µM and the TGI worked out at 5.87 µM.

Turning to `Cc1[nH]nc2ccc3nc(-c4ccc5[nH]ncc5c4)c4c(c3c12)CCCC4`, the GI50 is 1.02 µM and the TGI came to 4.38 µM.

With `CS(=O)(=O)c1ccc(Oc2cc(F)cc(C#N)c2)c2c1[C@H](O)C(F)(F)C2`, the GI50 was above 100 µM and the TGI was above 100 µM.

As to `Cn1ccnc1C(=O)/C=C/c1ccc(CC(=O)Nc2ccc(F)cc2)cc1`, the GI50 is 1.72 µM and the TGI came to 5.8 µM.

For `Clc1ccc(C2=NN[C@H](c3cn(-c4ccccc4)nc3-c3ccccc3)C2)cc1`, the GI50 was 4.22 µM and the TGI stood at 18.2 µM.

As for `O=S(=O)(CCNCc1ccc(-c2ccc3ncnc(Nc4ccc(OCc5cccc(F)c5)c(Cl)c4)c3c2)o1)c1ccccc1`, the GI50 was 0.217 µM and the TGI worked out at 7.79 µM.

For `O=C(NCCNc1nccc(-c2c(-c3cccc(O)c3)nc3sccn23)n1)Nc1cccc(C(F)(F)F)c1`, the GI50 is 1.67 µM and the TGI turned out to be 3.33 µM.

In the case of `CCN(CC)CCCC(Cc1ccccc1)Nc1c2ccc(Cl)cc2nc2ccc(OC)cc12` (centres undefined), the GI50 was 1.7 µM and the TGI amounted to 3.67 µM.

Take `Cc1cc2cc3cc(C)c(N)cc3[n+](C)c2cc1N`: the GI50 is 0.243 µM and the TGI amounted to 1.3 µM.

Take `N#C/C(=C1C=C/C(=N\O)C(Cl)=C\1)c1ccccc1`: the GI50 was 0.92 µM and the TGI turned out to be 17.5 µM.

Regarding `Cc1cc(C)c2nc3nc(C)cc(C)c3c(N)c2c1`, the GI50 was 3.61 µM and the TGI worked out at 14.9 µM.

Take `COc1ccc(CCN2CCC(Nc3nc4ccccc4n3Cc3ccc(F)cc3)CC2)cc1`: the GI50 is 1.15 µM and the TGI was 2.44 µM.

In the case of `COc1ccc(-c2nn(-c3cccc(NC(=O)c4cccc(C(F)(F)F)c4)c3)cc2-c2ccncc2)cc1Cl`, the GI50 is 1.68 µM and the TGI is 9.61 µM.

For the molecule `CC(C)n1c(=O)n(C)c2cnc3cc(F)c(-c4ccc(OCCCN5CCCCC5)nc4)cc3c21`, the GI50 was 4.98 µM and the TGI was found to be 26 µM.

For the origin of these results see PubChem BioAssay (NCI).
